pIC50: −log10 of the molar value.
Molecular target: cGMP-specific 3',5'-cyclic phosphodiesterase (Homo sapiens, UniProt O76074)
Assay: Inhibition of PDE-5A (unknown origin)

Row | pIC50 | Compound
1 | 6.30 | CC(C)=CCC1=C(O)c2c(occ(-c3ccc(O[N+](=O)[O-])cc3)c2=O)C2C=CC(C)(C)OC12 (configuration not stated)
2 | 5.57 | CC(C)=CCc1c(O)c2c(c3c1OC(C)(C)C=C3)CC=C(c1ccc3c(c1)OCCO3)C2=O
